Ends that are not written are not given here. Peptide text beside a SMILES is read from it. * marks the point of attachment. fluorescein = fluorescein group attached to the lysine side chain; Benzoyl(4-Br) = O=C(c1ccc(Br)cc1)*; Myristoyl = CCCCCCCCCCCCCC(=O)*; Bz = O=C(c1ccccc1)*
What was measured:
[1] = test system: MIAPaCa2 pancreatic cancer cells; test: Subcutaneous MIAPaCa2 tumor, intratumoral peptide for 27 days; format: in vivo, nude mice; settings: whole course of treatment
Procedure: When the tumor reached about 5 mm-15 mm in diameter after subcutaneous transplantation of MIAPaCa2 cells (n=10 treatment, n=10 control) into the mouse right flank, mice were treated with 10 mM of peptide for 27 days dissolved in DMSO. The peptide was applied directly into the tumor. The control group was treated with phosphate buffered saline solution alone.
HE staining and immunostaining for Ki67 (n=6 treatment, n=7 control) was performed as described by the manufacturer. For evaluation the Zeiss Axioplan 2 microscope was used. Photos are made with Zeiss Axiocam. For photos 40× objectives were used. Statistical Analysis. Data are presented as means and differences in means with 95% confidence intervals for the differences. Tests for statistical differences were performed using t-tests and Mann-Whitney tests and Wilcoxon tests. For the in vivo experiments, at least 10 mice were used each group. This number was derived by power analysis to detect a 50% reduction in tumor size, with a beta error of 3%. Because the overall sample size was small and outcome variables could have a non-normal distribution, the non-parametric Mann-Whitney test was used to detect statistical significant differences in each group. P values less than 0.05 were considered to be significant. The significance of the tumor take rates was calculated by using a Wilcoxon-test. […]

[2] = test system: AsPC1 cells; test: Cellular localization of fluorescein-tagged analogs (confocal); format: cell-based, human
Source text: Furthermore, the cellular localization of both CR1023 and CR1166 was investigated in AsPC1 cells using their fluorescein-tagged analogs CR1171 and CR1173 (FIG. 24). CR1172, the fluorescein-tagged analog of CR1164 was used as a control. The green (for fluorescein) and blue (for DAPI) fluorescent microscopy images were collected for AsPC1 cells treated with peptides CR1171, CR1172 and CR1173 using a LSM 510 confocal laser scan microscope. The presence of green fluorescence in FIGS. 24d, -g, -j indicated the internalization of CR1171, CR1172 and CR1173. Untreated AsPC1 cells were devoid of the green fluorescent signal.

[3] = test system: AsPC1 cells; format: cell-based, human; settings: 50-200 μM, 48 h-96 h (Example 6)
Procedure: (§1) MDA231-W and AsPC1 cells were cultured in RPMI 1640 media supplemented with 10% fetal bovine serum (FBS), 5% L-Glutamine, and 1% antibiotics (penicillin-streptomycin purchased from Invitrogen, Carlsbad, Calif.). Cells were maintained at 37° C. in an atmosphere containing 95% air-5% CO2 (v/v). Cells were then incubated with different doses of GIPC inhibitor peptides (50-200 μM) for different time (48 h to 96 h). MDA-231 WT (4×10^4) and AsPC1 cells (2×10^4) were seeded in 24-well plates, cultured for 1 d in RPMI 1640 medium supplemented with 10% FBS, 5% L-Glutamine, and 1% antibiotics. Cells were then incubated with GIPC inhibitor peptides in a time dependent (48 h-96 h) and dose dependent manner (50-200 μM). After certain time of incubation, 1 μCi [^3H]-thymidine was added and proliferation assay performed as previously described. Experiments were repeated at least thrice and in triplicate.

[4] = test system: MDA-MB-231-WT breast cancer cells; format: cell-based; settings: 50-200 μM, 48 h-96 h (Example 6)
Procedure: as §1

[5] = test system: AsPC1 cells; test: Apoptosis assay (annexin/PI); format: cell-based, human; settings: 50-200 μM
Procedure: (§2) MDA231-WT and AsPC1 ells were seeded into 6-well plates at a density of 4×10^5/2 ml of RPMI medium per well and grown overnight. Next day cells were treated with GIPC inhibitor peptides in a time dependent (48 h-96 h) and dose dependent manner (50-200 μM). After treatment with definite time, cells were extensively washed with PBS and tested with the Annexin V-FITC Apoptosis Detection Kit (Biovision, Cat. No. #K101-100) per the manufacturer's instructions.

[6] = test system: MDA-MB-231-WT cells; test: Apoptosis assay (annexin/PI); format: cell-based; settings: 50-200 μM
Procedure: as §2

CCCCCCCCCCCCCC(=O)N1CCC[C@H]1C(=O)N[C@@H](CO)C(=O)N[C@@H](CCC(N)=O)C(=O)N[C@@H](CO)C(=O)N[C@@H](CO)C(=O)N[C@@H](CO)C(=O)N[C@@H](CCC(=O)O)C(=O)N[C@@H](C)C(=O)O [PSQSSSEA, P-S-Q-S-S-S-E-A] (Myristoyl-PSQSSSEA-OH)
toxicity during treatment ([1]; listed as GIPC-PDZ-targeting peptide): without showing toxicity
toxicity during treatment ([1]; listed as PDZ domain inhibitor): did not show any toxicity

My-K(FI)PSQSK(4-Br-ben)SK(4-Br-ben)A (Myristoyl-K(fluorescein)PSQSK(Benzoyl(4-Br))SK(Benzoyl(4-Br))A) [CR1173]
cellular localization [2]: localized on the membrane
internalization (green fluorescence) [2]: internalization

My-K(FI)PSQSK(ben)SK(ben)A (Myristoyl-K(fluorescein)PSQSK(Bz)SK(Bz)A) [CR1172]
cellular localization [2]: more dispersely localized
internalization (green fluorescence) [2]: internalization

My-K(FI)PSQSSSEA (Myristoyl-K(fluorescein)PSQSSSEA) [CR1171]
cellular localization [2]: more dispersely localized
internalization (green fluorescence) [2]: internalization

My-LLQGPSQSSSEA (Myristoyl-LLQGPSQSSSEA) [SEQ ID NO: 22]
inhibition of cell proliferation [3]: significant inhibitions
inhibition of cell proliferation [4]: significant inhibitions
induction of apoptosis [5]: significant induction of apoptosis
induction of apoptosis [6]: significant induction of apoptosis

My-PSQSK(4-Br-ben)SEA (Myristoyl-PSQSK(Benzoyl(4-Br))SEA) [CR1170]
induction of apoptosis [5]: no effect
induction of apoptosis [6]: no effect

My-PSQSK(ben)SK(ben)A (Myristoyl-PSQSK(Bz)SK(Bz)A) [CR1164]
inhibition of cell proliferation [3]: almost no or little effect
inhibition of cell proliferation [4]: almost no or little effect
induction of apoptosis [5]: no effect
induction of apoptosis [6]: no effect

My-PSQSSSK(4-Br-ben)A (Myristoyl-PSQSSSK(Benzoyl(4-Br))A) [CR1162]
inhibition of cell proliferation [3]: almost no or little effect
inhibition of cell proliferation [4]: almost no or little effect

My-SESPSASQ (Myristoyl-SESPSASQ) [CR2055]
inhibition of cell proliferation [3]: no effect
inhibition of cell proliferation [4]: no effect
induction of apoptosis [5]: no effect
induction of apoptosis [6]: no effect

My-SPSASK(4-Br-ben)SQ (Myristoyl-SPSASK(Benzoyl(4-Br))SQ) [CR2059]
inhibition of cell proliferation [3]: very little effect
inhibition of cell proliferation [4]: very little effect
induction of apoptosis [5]: no effect
induction of apoptosis [6]: no effect
